The values below come from patent US20100233278A1, “RAPIDLY DISINTEGRATING SOLID PREPARATION” (priority 2007, published 2010).

Each structure is given as a SMILES string.

This data set in a line: dissolution rate of saccharide or sugar alcohol, 6-vessel dissolution tester. It counts as physicochemical. As to conditions: 2 g in desalted water 500 mL, 37° C., paddle 50 min^−1; rate constant k per surface area. As for the experimental part:
In the present invention, the “dissolution rate” is obtained by using a 6-vessel dissolution tester (NTR-6100, Toyama Sangyo Co., Ltd.). The paddle rotation speed was 50 min^−1, and saccharide or sugar alcohol was added by 2 g to desalted water (500 mL), which is a test solution, heated to 37° C. Samples were taken at given time intervals after addition, changes in the dry weight of the samples per unit time were calculated, and dissolution rate constant k was calculated by the Noyes-Whitney equation. The dissolution rate constant k was converted to value per surface area of each saccharide or sugar alcohol and the obtained value was taken as dissolution rate [1/min·m^2]. As the specific surface area, the value measured by a laser diffraction particle size analyzer [Mastersizer] of Malvern Instruments Ltd. was used. The tablets obtained in the Examples and Comparative Examples were measured for hardness, disintegration time in the oral cavity, disintegration time (ODT) by the following test methods. In addition, the dissolution rate of saccharide and sugar alcohol used in the Examples and Comparative Examples was measured. • (1) The hardness was measured by a tablet hardness tester (WHT-2ME, Pharma Test). The test was performed using 3 or 10 tablets, and the average value is shown. • (2) As for the disintegration time in the oral cavity, the tablet of the present invention was placed in the oral cavity of a healthy adult without water, and the time necessary for complete disintegration of the tablet with only saliva was measured. • (3) The disintegration time (ODT) was measured by an Orally Disintegrating Tablet Tester (ODT-101, Toyama Sangyo Co., Ltd.). As for the measurement conditions, a weight (15 g, weight diameter 15 mm) was used at a rotating speed of 50 rpm, and an average of 3 measures was taken. • (4) The “dissolution rate” was measured by using a 6-vessel dissolution tester (NTR-6100, Toyama Sangyo Co., Ltd.). The paddle rotation speed was 50 min^−1, and saccharide or sugar alcohol was added by 2 g to desalted water (500 mL), which is a test solution, heated to 37° C. Samples were taken at given time intervals after addition, changes in the dry weight of the samples per unit time were calculated, and dissolution rate constant k was calculated by the Noyes-Whitney equation. The dissolution rate constant k was converted to value per the surface area of each saccharide or sugar alcohol and the obtained value was taken as dissolution rate [1/min·m^2]. As the specific surface area, the value measured by a laser diffraction particle size analyzer [Mastersizer] of Malvern Instruments Ltd. was used.
Regarding `OC[C@@H](O)[C@@H](O)CO` [Erythritol], the dissolution rate is 11.99 1/min·m^2.

Turning to `OC[C@@H](O)[C@@H](O)[C@H](O)[C@H](O)CO` [β-form mannitol], the dissolution rate was 2.28 1/min·m^2.

For the molecule `OC[C@@H](O)[C@H](O)[C@@H](O)CO` [Xylitol], the dissolution rate was 3.57 1/min·m^2.

For `OC[C@H]1O[C@@H](O[C@H]2[C@H](O)[C@@H](O)C(O)O[C@@H]2CO)[C@H](O)[C@@H](O)[C@H]1O` (stereo partly drawn) [Lactose], the dissolution rate is recorded as 5.68 1/min·m^2.

In the case of `OC[C@H]1O[C@@](CO)(O[C@H]2O[C@H](CO)[C@@H](O)[C@H](O)[C@H]2O)[C@@H](O)[C@@H]1O` [Purification sucrose], the dissolution rate is listed as 2.80 1/min·m^2.

As for `OC[C@@H](O)[C@@H](O)[C@H](O)[C@H](O)CO` [α-form mannitol], the dissolution rate was 4.62 1/min·m^2.
